Experimental data reported in patent publication US20150239889A1, “PYRAZOLOPYRIMIDINE COMPOUND” (MITSUBISHI TANABE PHARMA CORPORATION, priority 2012, published 2015).

These molecules were tested on Hep3B cells (assay: EPO production assay (ELISA of culture supernatant)). Details: Homo sapiens, 3 μmol/L test compound, 48 hours, relative to control (0.1% DMSO), read-out: EPO production stimulation rate with 3 μmol/L test compound.
Type: cell-based
Description: The stimulatory effect of the compound onEPO production was determined as follows using Hep3B cells.
Cells were seeded on 96 well plates at 40000 cells/well, and the plate was incubated overnight in MEM medium containing 10% fetal bovine serum (FBS) at 37° C. under 5% CO2. The next day, the medium was replaced with MEM containing 0.5% FBS, followed by addition of test compound. The test compound was dissolved in dimethyl sulfoxide and added to the cell so that the final concentration of dimethyl sulfoxide was 0.1%. After incubation for additional 48 hours, the culture supernatant was collected, and EPO contained in the supernatant was determined using ELISA kit (EPO ELISA Kit 11-693-417-001, Roche Co.). The results were expressed as stimulation rate of EPO production (fold), which was calculated as the relative value of the EPO production with 3 μmol/L of the test compound compared to the EPO production without stimulation (control).
Stimulation rate of EPO production (fold)=(EPO production with addition of test compound)/(EPO production of control)

SMILES	fold induction at 3 µM
O=C(O)c1cnn(-c2nc(O)c3c(cnn3CC3CCN(c4ccc(C(F)(F)F)cn4)CC3)n2)c1 [Example 171]	11
O=C(O)c1cnn(-c2nc(O)c3c(cnn3Cc3ccc4c(c3)CCCC4)n2)c1 [Example 36]	1.4
O=C(O)c1cnn(-c2nc(O)c3c(cnn3CCCCOc3ccc(F)cc3)n2)c1 [Example 215]	6.7
O=C(O)c1cnn(-c2nc(O)c3c(cnn3Cc3ccc(-c4ccccc4)c(F)c3)n2)c1 [Example 91]	8.6
Cc1nn([C@@H](C)c2ccc(Cl)c(Cl)c2)c2c(O)nc(-n3cc(C(=O)O)cn3)nc12 [Example 447]	5.4
O=C(O)c1cnn(-c2nc(O)c3c(cnn3CCOc3ccc(-c4ccccc4)cc3)n2)c1 [Example 205]	20
CC1(Cn2nc(F)c3nc(-n4cc(C(=O)O)cn4)nc(O)c32)CCCCC1 [Example 470]	1.7
O=C(O)c1cnn(-c2nc(O)c3nn(Cc4ccc5ccccc5c4)cc3n2)c1 [Example 242]	1.7
O=C(O)c1cnn(-c2nc(O)c3c(cnn3C[C@H]3CC[C@H](c4ccccc4)CC3)n2)c1 [Example 155]	11
Cc1ncccc1-c1ccc(Cn2ncc3nc(-n4cc(C(=O)O)cn4)nc(O)c32)cc1F [Example 106]	5.2
Cc1ccccc1-c1ccc(Cn2ncc3nc(-n4cc(C(=O)O)cn4)nc(O)c32)cc1 [Example 57]	9.1
O=C(O)c1cnn(-c2nc(O)c3c(cnn3CC3CCCCCC3)n2)c1 [Example 158]	1.2
O=C(O)c1cnn(-c2nc(O)c3c(n2)c(F)nn3CCC2CCCCC2)c1 [Example 472]	2.4
O=C(O)c1cnn(-c2nc(O)c3c(cnn3Cc3ccc(-c4ccc(C(F)(F)F)cc4)cc3)n2)c1 [Example 67]	19
O=C(O)c1cnn(-c2nc(O)c3c(cnn3Cc3ccc(-c4ccccc4F)cc3C(F)(F)F)n2)c1 [Example 89]	16
O=C(O)c1cnn(-c2nc(O)c3c(cnn3CCCOc3cccc(C(F)(F)F)c3)n2)c1 [Example 174]	9.9
Cc1cccc(C)c1-c1cccc(Cn2ncc3nc(-n4cc(C(=O)O)cn4)nc(O)c32)c1 [Example 48]	6.6
CC(C)(C)c1cccc(OCCCn2ncc3nc(-n4cc(C(=O)O)cn4)nc(O)c32)c1 [Example 179]	14
COc1ccccc1-c1ccc([C@H](C)n2ncc3nc(-n4cc(C(=O)O)cn4)nc(O)c32)cc1 [Example 113]	7.5
O=C(O)c1cnn(-c2nc(O)c3c(n2)c(C2CC2)nn3CC2CCCCC2)c1 [Example 234]	5.7

The molecules below were run against T1, human HIF-PHD2 (Homo sapiens, UniProt Q9GZT9) (assay: HIF-PHD inhibition assay (fluorescence polarization), human HIF-PHD2). Details: 2-oxoglutaric acid 3.33 μmol/L.
T1 construct: purchased CrystalGenomics Ltd
Type: biochemical
Summary of the method: (§1)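 Activity was derived as the fluorescence polarization (mP) after enzyme addition minus that measured before enzyme addition. Probe bore a 5′-fluoresceinamide (FAM) label with an aminocaproic acid (ACA) linker.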

T1 sequence (Q9GZT9 2-426 limits assumed): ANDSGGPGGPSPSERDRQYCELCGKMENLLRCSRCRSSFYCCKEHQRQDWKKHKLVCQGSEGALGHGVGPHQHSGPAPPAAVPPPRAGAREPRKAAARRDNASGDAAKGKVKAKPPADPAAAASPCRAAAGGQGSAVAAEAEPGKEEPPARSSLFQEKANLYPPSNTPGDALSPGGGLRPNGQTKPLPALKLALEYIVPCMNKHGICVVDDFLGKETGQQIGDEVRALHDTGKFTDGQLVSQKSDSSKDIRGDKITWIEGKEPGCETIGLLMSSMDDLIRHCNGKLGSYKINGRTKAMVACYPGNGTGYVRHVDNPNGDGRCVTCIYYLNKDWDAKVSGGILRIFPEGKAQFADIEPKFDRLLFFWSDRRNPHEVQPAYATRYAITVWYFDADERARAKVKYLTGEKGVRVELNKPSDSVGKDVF

SMILES	IC50
O=C(O)c1cnn(-c2nc(O)c3c(cnn3CC3CCN(c4ccc(C(F)(F)F)cn4)CC3)n2)c1 [Example 171]	14 nM
O=C(O)c1cnn(-c2nc(O)c3c(cnn3Cc3ccc4c(c3)CCCC4)n2)c1 [Example 36]	15 nM
O=C(O)c1cnn(-c2nc(O)c3c(cnn3CCCCOc3ccc(F)cc3)n2)c1 [Example 215]	14 nM
O=C(O)c1cnn(-c2nc(O)c3c(cnn3Cc3ccc(-c4ccccc4)c(F)c3)n2)c1 [Example 91]	24 nM
Cc1nn([C@@H](C)c2ccc(Cl)c(Cl)c2)c2c(O)nc(-n3cc(C(=O)O)cn3)nc12 [Example 447]	20 nM
O=C(O)c1cnn(-c2nc(O)c3c(cnn3CCOc3ccc(-c4ccccc4)cc3)n2)c1 [Example 205]	13 nM
CC1(Cn2nc(F)c3nc(-n4cc(C(=O)O)cn4)nc(O)c32)CCCCC1 [Example 470]	48 nM
O=C(O)c1cnn(-c2nc(O)c3nn(Cc4ccc5ccccc5c4)cc3n2)c1 [Example 242]	17 nM
O=C(O)c1cnn(-c2nc(O)c3c(cnn3C[C@H]3CC[C@H](c4ccccc4)CC3)n2)c1 [Example 155]	10 nM
Cc1ncccc1-c1ccc(Cn2ncc3nc(-n4cc(C(=O)O)cn4)nc(O)c32)cc1F [Example 106]	7.4 nM
Cc1ccccc1-c1ccc(Cn2ncc3nc(-n4cc(C(=O)O)cn4)nc(O)c32)cc1 [Example 57]	15 nM
O=C(O)c1cnn(-c2nc(O)c3c(cnn3CC3CCCCCC3)n2)c1 [Example 158]	24 nM
O=C(O)c1cnn(-c2nc(O)c3c(n2)c(F)nn3CCC2CCCCC2)c1 [Example 472]	17 nM
O=C(O)c1cnn(-c2nc(O)c3c(cnn3Cc3ccc(-c4ccc(C(F)(F)F)cc4)cc3)n2)c1 [Example 67]	10 nM
O=C(O)c1cnn(-c2nc(O)c3c(cnn3Cc3ccc(-c4ccccc4F)cc3C(F)(F)F)n2)c1 [Example 89]	48 nM
O=C(O)c1cnn(-c2nc(O)c3c(cnn3CCCOc3cccc(C(F)(F)F)c3)n2)c1 [Example 174]	32 nM
Cc1cccc(C)c1-c1cccc(Cn2ncc3nc(-n4cc(C(=O)O)cn4)nc(O)c32)c1 [Example 48]	70 nM
CC(C)(C)c1cccc(OCCCn2ncc3nc(-n4cc(C(=O)O)cn4)nc(O)c32)c1 [Example 179]	45 nM
COc1ccccc1-c1ccc([C@H](C)n2ncc3nc(-n4cc(C(=O)O)cn4)nc(O)c32)cc1 [Example 113]	5.3 nM
O=C(O)c1cnn(-c2nc(O)c3c(n2)c(C2CC2)nn3CC2CCCCC2)c1 [Example 234]	91 nM

The molecules below were run against T2, human HIF-PHD3 (Homo sapiens, UniProt Q9H6Z9) (assay: HIF-PHD inhibition assay (fluorescence polarization), human HIF-PHD3). Details: 2-oxoglutaric acid 166 μmol/L.
T2 construct: purchased CrystalGenomics Ltd
Type: biochemical
Summary of the method: as §1

T2 sequence (Q9H6Z9 whole entry): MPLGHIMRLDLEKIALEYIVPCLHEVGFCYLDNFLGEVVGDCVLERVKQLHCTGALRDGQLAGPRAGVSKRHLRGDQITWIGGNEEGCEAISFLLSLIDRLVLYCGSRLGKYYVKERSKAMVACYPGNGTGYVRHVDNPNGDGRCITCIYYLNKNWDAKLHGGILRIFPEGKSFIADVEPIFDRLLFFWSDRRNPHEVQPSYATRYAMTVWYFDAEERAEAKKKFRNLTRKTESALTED

SMILES	IC50
O=C(O)c1cnn(-c2nc(O)c3c(cnn3CC3CCN(c4ccc(C(F)(F)F)cn4)CC3)n2)c1 [Example 171]	160 nM
O=C(O)c1cnn(-c2nc(O)c3c(cnn3Cc3ccc4c(c3)CCCC4)n2)c1 [Example 36]	170 nM
O=C(O)c1cnn(-c2nc(O)c3c(cnn3CCCCOc3ccc(F)cc3)n2)c1 [Example 215]	290 nM
O=C(O)c1cnn(-c2nc(O)c3c(cnn3Cc3ccc(-c4ccccc4)c(F)c3)n2)c1 [Example 91]	28 nM
Cc1nn([C@@H](C)c2ccc(Cl)c(Cl)c2)c2c(O)nc(-n3cc(C(=O)O)cn3)nc12 [Example 447]	560 nM
O=C(O)c1cnn(-c2nc(O)c3c(cnn3CCOc3ccc(-c4ccccc4)cc3)n2)c1 [Example 205]	280 nM
CC1(Cn2nc(F)c3nc(-n4cc(C(=O)O)cn4)nc(O)c32)CCCCC1 [Example 470]	260 nM
O=C(O)c1cnn(-c2nc(O)c3nn(Cc4ccc5ccccc5c4)cc3n2)c1 [Example 242]	150 nM
O=C(O)c1cnn(-c2nc(O)c3c(cnn3C[C@H]3CC[C@H](c4ccccc4)CC3)n2)c1 [Example 155]	70 nM
Cc1ncccc1-c1ccc(Cn2ncc3nc(-n4cc(C(=O)O)cn4)nc(O)c32)cc1F [Example 106]	28 nM
Cc1ccccc1-c1ccc(Cn2ncc3nc(-n4cc(C(=O)O)cn4)nc(O)c32)cc1 [Example 57]	130 nM
O=C(O)c1cnn(-c2nc(O)c3c(cnn3CC3CCCCCC3)n2)c1 [Example 158]	310 nM
O=C(O)c1cnn(-c2nc(O)c3c(n2)c(F)nn3CCC2CCCCC2)c1 [Example 472]	350 nM
O=C(O)c1cnn(-c2nc(O)c3c(cnn3Cc3ccc(-c4ccc(C(F)(F)F)cc4)cc3)n2)c1 [Example 67]	190 nM
O=C(O)c1cnn(-c2nc(O)c3c(cnn3Cc3ccc(-c4ccccc4F)cc3C(F)(F)F)n2)c1 [Example 89]	1300 nM
O=C(O)c1cnn(-c2nc(O)c3c(cnn3CCCOc3cccc(C(F)(F)F)c3)n2)c1 [Example 174]	570 nM
Cc1cccc(C)c1-c1cccc(Cn2ncc3nc(-n4cc(C(=O)O)cn4)nc(O)c32)c1 [Example 48]	340 nM
CC(C)(C)c1cccc(OCCCn2ncc3nc(-n4cc(C(=O)O)cn4)nc(O)c32)c1 [Example 179]	160 nM
COc1ccccc1-c1ccc([C@H](C)n2ncc3nc(-n4cc(C(=O)O)cn4)nc(O)c32)cc1 [Example 113]	85 nM
O=C(O)c1cnn(-c2nc(O)c3c(n2)c(C2CC2)nn3CC2CCCCC2)c1 [Example 234]	660 nM
